The text below walks through data of patent publication US12084458B2, “Substituted pyridines, pyridazines, and pyrimidines as TYK2 inhibitors” (Sudo Biosciences Limited, priority 2021, dated 2024).

Usually IC50 stands for the midpoint of a concentration-inhibition curve.

Where only a bound is given, the exact number is not on record here.

Assay [1] concerns HEK-Blue IL-2 reporter cells (IL-2-stimulated STAT5 SEAP reporter). Nature of the assay: HEK-Blue IL-2 SEAP reporter assay for determining selectivity. Format: cell-based. As to conditions: 4 ng/mL human recombinant IL-2. The essentials:
(§1)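 Cells were plated for 20-22 h, then pretreated with serially diluted compound for 60 min. They were stimulated for 24 h with 4 ng/mL human recombinant IL-2 or 50 ng/mL human recombinant IFNγ, and SEAP induction was read with QUANTI-Blue.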
(In general: In a reporter assay the amount or activity of a reporter protein is the signal.)

The subject of assay [2] is HEK-Blue IL-23 cells (IL-23-stimulated STAT3 SEAP reporter; TYK2 JH2). Nature of the assay: HEK-Blue IL-23 SEAP reporter assay for profiling TYK2 pseudokinase (JH2) inhibition. The format is cell-based. The following applies: 10 ng/mL human recombinant IL-23, SEAP reporter, read-out: IL23 (TYK2 inhibitory activity, IC50). A digest of the protocol:
(§2)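 Cells were pretreated 60 min with serially diluted compounds, then stimulated with 10 ng/mL human IL-23 for 22-24 hours (STAT3 line) or 1 ng/mL human IFNα for 16-18 h (STAT1 line). SEAP induction read with QUANTI-Blue.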

The subject of assay [3] is HEK-Blue IFNα/β cells (IFNα-stimulated STAT1 SEAP reporter; TYK2 JH2). Nature of the assay: HEK-Blue IFNα/β SEAP reporter assay for profiling TYK2 pseudokinase (JH2) inhibition. The format is cell-based. The following applies: Homo sapiens, HEK-Blue, 1 ng/mL human recombinant IFNα, read-out: IFNα (TYK2 inhibitory activity, IC50). The essentials:
as §2

Assay [4] addresses T1, JAK3 kinase domain (JH1) (Homo sapiens, UniProt P52333).
T1 construct: recombinant purified His or GST-tagged catalytic domain for each enzyme; purchased Carna biosciences 08-046
Nature of the assay: HTRF-based selectivity assay, JAK3 catalytic domain. Format: biochemical. The following applies: recombinant catalytic domain, ATP 2.12 μM. How it is done:
(§3) Example B-2: HTRF-Based Selectivity Assay
(§4) The ability of compounds to inhibit the activity of JAK1, JAK2, JAK3 and TYK2 is measured using a recombinant purified His or GST-tagged catalytic domain for each enzyme (JAK1, JAK2 and TYK2 are generated in-house; JAK3 was purchased from Carna biosciences, Cat #08-046) in an HTRF format biochemical assay. The reactions employs a commercial peptide substrate from Cisbio (Cat #62TK0PEC). The basic assay protocol is as follows: first, 2.5 μL of diluted compounds (4×) in DMSO are dispensed into a 384-well Optiplate. Next, 2.5 μL of enzyme (final concentrations for enzymes are: TYK2—700 ng/mL, JAK1—80.6 ng/mL, JAK2—2.1 ng/mL and JAK3—171.8 ng/mL) is added and incubated at RT for 5-20 min. Finally, 5 μl of mixture of 2× ATP [Final concentration 20 μM for TYK2, 21.43 μM for JAK1, 14.7 μM for JAK2 and 2.12 μM for JAK3]+2× Substrate [Final concentration 217 nM for TYK2, 454.7 nM for JAK1, 200 nM for JAK2 and 257.4 nM for JAK3] is added to 384 well Optiplate. Composition of Kinase assay buffer used in the assay is as follows: HEPES 50 mM, EGTA 1 mM, MgCl2 10 mM, DTT 2 mM, Tween-20 0.01% and water. Then the plates are shaken and then incubated at 26.5° C. for 60 min.
In general terms: Time-resolved FRET reads energy transfer from a long-lived donor to a nearby acceptor.

Assay [5] has as its target T2, JAK1 kinase domain (JH1) (Homo sapiens, UniProt P23458).
T2 construct: recombinant purified His or GST-tagged catalytic domain for each enzyme; made in house
Nature of the assay: HTRF-based selectivity assay, JAK1 catalytic domain. Format: biochemical. The following applies: recombinant catalytic domain, ATP 21.43 μM. How it is done:
as §3, §4

In assay [6] the target is T3, TYK2 kinase domain (JH1) (Homo sapiens, UniProt P29597).
T3 construct: recombinant purified His or GST-tagged catalytic domain for each enzyme; made in house
T3 sequence (P29597 897-1176 limits assumed): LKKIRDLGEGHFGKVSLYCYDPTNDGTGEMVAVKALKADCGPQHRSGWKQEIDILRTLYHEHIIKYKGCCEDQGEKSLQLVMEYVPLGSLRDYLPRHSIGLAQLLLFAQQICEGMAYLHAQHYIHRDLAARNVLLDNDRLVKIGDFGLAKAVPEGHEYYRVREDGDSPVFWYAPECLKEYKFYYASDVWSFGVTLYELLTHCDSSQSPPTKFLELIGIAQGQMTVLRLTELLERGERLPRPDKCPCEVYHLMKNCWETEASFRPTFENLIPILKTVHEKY
Nature of the assay: HTRF-based selectivity assay, TYK2 catalytic domain. The format is biochemical. As to conditions: recombinant catalytic domain, ATP 20 μM. As for the experimental part:
as §3, §4

Assay [7] deals with HEK-Blue IFNγ reporter cells (IFNγ-stimulated STAT1 SEAP reporter). Nature of the assay: HEK-Blue IFNγ SEAP reporter assay for determining selectivity. The format is cell-based. The following applies: Homo sapiens, HEK-Blue, 50 ng/mL human recombinant IFNγ, read-out: IFN-γ (SEAP selectivity, IC50). A digest of the protocol: as §1
In assay [8] the target is T4, JAK2 kinase domain (JH1) (Homo sapiens, UniProt O60674).
T4 construct: recombinant purified His or GST-tagged catalytic domain for each enzyme; made in house
As to the kind of experiment: HTRF-based selectivity assay, JAK2 catalytic domain. The format is biochemical. As to conditions: recombinant catalytic domain, ATP 14.7 μM. How it is done:
as §3, §4

T1 sequence (P52333 822-1111 limits assumed): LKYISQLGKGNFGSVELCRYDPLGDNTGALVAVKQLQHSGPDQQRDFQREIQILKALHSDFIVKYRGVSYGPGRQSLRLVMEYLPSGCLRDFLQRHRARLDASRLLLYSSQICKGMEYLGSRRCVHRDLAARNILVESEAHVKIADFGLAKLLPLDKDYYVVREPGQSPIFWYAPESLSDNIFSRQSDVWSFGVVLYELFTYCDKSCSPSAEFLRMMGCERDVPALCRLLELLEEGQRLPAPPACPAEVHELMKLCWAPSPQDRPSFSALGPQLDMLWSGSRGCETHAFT
T2 sequence (P23458 875-1153 limits assumed): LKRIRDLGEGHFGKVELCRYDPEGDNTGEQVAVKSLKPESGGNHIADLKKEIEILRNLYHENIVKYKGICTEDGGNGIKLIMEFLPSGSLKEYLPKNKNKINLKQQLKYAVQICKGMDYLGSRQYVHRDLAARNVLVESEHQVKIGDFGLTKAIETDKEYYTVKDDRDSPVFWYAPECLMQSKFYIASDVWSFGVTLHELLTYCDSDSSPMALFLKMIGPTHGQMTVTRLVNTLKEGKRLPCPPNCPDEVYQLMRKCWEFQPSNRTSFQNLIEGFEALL
T4 sequence (O60674 849-1124 limits assumed): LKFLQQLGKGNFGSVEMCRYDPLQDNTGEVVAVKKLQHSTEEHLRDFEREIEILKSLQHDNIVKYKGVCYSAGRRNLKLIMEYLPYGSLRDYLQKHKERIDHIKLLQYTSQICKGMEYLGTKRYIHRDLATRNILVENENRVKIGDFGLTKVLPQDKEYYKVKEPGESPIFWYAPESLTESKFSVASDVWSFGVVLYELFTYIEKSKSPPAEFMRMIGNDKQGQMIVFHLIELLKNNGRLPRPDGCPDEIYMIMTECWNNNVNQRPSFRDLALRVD

Turning to `[2H]C([2H])([2H])NC(=O)c1cnc(NC(=O)C2CC2)cc1Nc1cccc2c1N(C)Cc1nc(C)nn1-2` [Compound 4, 6-(cyclopropanecarboxamido)-4-((2,5-dimethyl-4,5-dihydro-[1,2,4]triazolo[1,5-a]quinoxalin-6-yl)amino)-N-(methyl-d3)nicotinamide], the half-maximal inhibitory concentration (IC50) in assay [1] was greater than 1000 nM; in assay [2], less than 30 nM; in assay [3] it was less than 30 nM; in assay [4] it was greater than 1000 nM; in assay [5], greater than 1000 nM; in assay [6], greater than 1000 nM. Also, in assay [7], the IC50 is 300 to 1000 nM.

Consider `[2H]C([2H])([2H])NC(=O)c1cnc(NC(=O)C2CC2)cc1Nc1cccc2c1N(C)Cc1nn(C)nc1-2` [Compound 45, 6-(cyclopropanecarboxamido)-4-((2,5-dimethyl-4,5-dihydro-2H-[1,2,3]triazolo[4,5-c]quinolin-6-yl)amino)-N-(methyl-d3)nicotinamide], for which the IC50 in assay [1] is greater than 1000 nM; in assay [2] it was less than 30 nM; in assay [3] it was less than 30 nM; in assay [4], greater than 1000 nM; in assay [5] it was greater than 1000 nM; in assay [7], 30 to 300 nM. Moreover, the half-inhibitory concentration (IC50) in assay [8] was greater than 1000 nM.

In the case of `[2H]C([2H])([2H])NC(=O)c1cnc(NC(=O)C2CC2)cc1Nc1cccc2c1N(C([2H])([2H])[2H])Cc1nn(C)nc1-2` [Compound 47, 6-(cyclopropanecarboxamido)-N-(methyl-d3)-4-((2-methyl-5-(methyl-d3)-4,5-dihydro-2H-[1,2,3]triazolo[4,5-c]quinolin-6-yl)amino)nicotinamide], the concentration for half-maximal inhibition (IC50) is greater than 1000 nM in assay [1]; less than 30 nM in assay [2]; less than 30 nM in assay [3]; greater than 1000 nM in assay [4]; greater than 1000 nM in assay [5]; greater than 1000 nM in assay [6]. Also, the half-maximal inhibitory concentration (IC50) in assay [7] is 30 to 300 nM.

As to `[2H]C([2H])([2H])NC(=O)c1nnc(NC(=O)C2CC2)cc1Nc1nccc2c1N(C)Cc1nn(C([2H])([2H])[2H])nc1-2` [Compound 91, 6-(cyclopropanecarboxamido)-N-(methyl-d3)-4-((5-methyl-2-(methyl-d3)-4,5-dihydro-2H-[1,2,3]triazolo[4,5-c][1,7]naphthyridin-6-yl)amino)pyridazine-3-carboxamide], the 50% inhibitory concentration (IC50) was greater than 1000 nM in assay [1], less than 30 nM in assay [2], less than 30 nM in assay [3] and 30 to 300 nM in assay [7].

Consider `[2H]C([2H])([2H])NC(=O)c1cnc(NC(=O)C2CC2)cc1Nc1nccc2c1N(C)Cc1nn(C([2H])([2H])[2H])nc1-2` [Compound 92, 6-(cyclopropanecarboxamido)-N-(methyl-d3)-4-((5-methyl-2-(methyl-d3)-4,5-dihydro-2H-[1,2,3]triazolo[4,5-c][1,7]naphthyridin-6-yl)amino)nicotinamide], for which the IC50 is 300 to 1000 nM in assay [1], less than 30 nM in assay [2], less than 30 nM in assay [3] and 30 to 300 nM in assay [7].

On to `[2H]C([2H])([2H])NC(=O)c1nnc(NC(=O)C2CC2)cc1Nc1nccc2c1N(C)Cc1nn(CC)nc1-2` [Compound 93, 6-(cyclopropanecarboxamido)-4-((2-ethyl-5-methyl-4,5-dihydro-2H-[1,2,3]triazolo[4,5-c][1,7]naphthyridin-6-yl)amino)-N-(methyl-d3)pyridazine-3-carboxamide], for which the IC50 in assay [1] was 300 to 1000 nM; in assay [2], less than 30 nM; in assay [3], less than 30 nM; in assay [7], 300 to 1000 nM.

As for `[2H]C([2H])([2H])NC(=O)c1nnc(NC(=O)C2CC2)cc1Nc1nccc2c1N(C)C([2H])([2H])c1nn(C)nc1-2` [Compound 96, 6-(cyclopropanecarboxamido)-4-((2,5-dimethyl-4,5-dihydro-2H-[1,2,3]triazolo[4,5-c][1,7]naphthyridin-6-yl-4,4-d2)amino)-N-(methyl-d3)pyridazine-3-carboxamide], the IC50 was 300 to 1000 nM in assay [1], less than 30 nM in assay [2], less than 30 nM in assay [3] and 30 to 300 nM in assay [7].

With `[2H]C([2H])([2H])NC(=O)c1cnc(NC(=O)C2CC2)cc1Nc1nccc2c1N(C)C([2H])([2H])c1nn(C)nc1-2` [Compound 97, 6-(cyclopropanecarboxamido)-4-((2,5-dimethyl-4,5-dihydro-2H-[1,2,3]triazolo[4,5-c][1,7]naphthyridin-6-yl-4,4-d2)amino)-N-(methyl-d3)nicotinamide], the IC50 in assay [1] is greater than 1000 nM; in assay [2], less than 30 nM; in assay [3] it was less than 30 nM; in assay [7] it was 300 to 1000 nM.

As to `[2H]C([2H])([2H])NC(=O)c1cnc(NC(=O)NC)cc1Nc1cc(F)cc2c1N(C)Cc1nc(C)nn1-2` [Compound 101, 4-((8-fluoro-2,5-dimethyl-4,5-dihydro-[1,2,4]triazolo[1,5-a]quinoxalin-6-yl)amino)-N-(methyl-d3)-6-(3-methylureido)nicotinamide], the half-maximal inhibitory concentration (IC50) in assay [1] is greater than 1000 nM; in assay [2], 30 to 300 nM; in assay [3], 300 to 1000 nM; in assay [7], greater than 1000 nM.

Consider `[2H]C([2H])([2H])NC(=O)c1cnc(Nc2cc(C)nc(C)n2)cc1Nc1cc(F)cc2c1N(C)Cc1nc(C)nn1-2` [Compound 102, 6-((2,6-dimethylpyrimidin-4-yl)amino)-4-((8-fluoro-2,5-dimethyl-4,5-dihydro-[1,2,4]triazolo[1,5-a]quinoxalin-6-yl)amino)-N-(methyl-d3)nicotinamide], for which the IC50 in assay [1] is 300 to 1000 nM; in assay [2], less than 30 nM; in assay [3], less than 30 nM; in assay [7], 30 to 300 nM.

In the case of `[2H]C([2H])([2H])NC(=O)c1nnc(NC(=O)C2CC2)cc1Nc1ccc(F)c2c1N(C)Cc1nc(C)nn1-2` [Compound 105, 6-(cyclopropanecarboxamido)-4-((9-fluoro-2,5-dimethyl-4,5-dihydro-[1,2,4]triazolo[1,5-a]quinoxalin-6-yl)amino)-N-(methyl-d3)pyridazine-3-carboxamide], the 50% inhibitory concentration (IC50) is greater than 1000 nM in assay [1], less than 30 nM in assay [2], 30 to 300 nM in assay [3] and greater than 1000 nM in assay [7].

Take `[2H]C([2H])([2H])NC(=O)c1cnc(NC(=O)C2CC2)cc1Nc1ccc(F)c2c1N(C)Cc1nc(C)nn1-2` [Compound 107, 6-(cyclopropanecarboxamido)-4-((9-fluoro-2,5-dimethyl-4,5-dihydro-[1,2,4]triazolo[1,5-a]quinoxalin-6-yl)amino)-N-(methyl-d3)nicotinamide]: the IC50 in assay [1] was greater than 1000 nM; in assay [2] it was less than 30 nM; in assay [3], 30 to 300 nM; in assay [7] it was greater than 1000 nM.

As to `[2H]C([2H])([2H])NC(=O)c1nnc(NC(=O)NC)cc1Nc1nccc2c1N(C)Cc1nn(C)nc1-2` [Compound 108, 4-((2,5-dimethyl-4,5-dihydro-2H-[1,2,3]triazolo[4,5-c][1,7]naphthyridin-6-yl)amino)-N-(methyl-d3)-6-(3-methylureido)pyridazine-3-carboxamide], the IC50 was 30 to 300 nM in assay [1], less than 30 nM in assay [2], less than 30 nM in assay [3] and greater than 1000 nM in assay [7].
